Measured values reported in US20070225356A1, “Preventive and/or Therapeutic Agent for Chronic Sinusitis” (Kyowa Hakko Kogo Co., Ltd, priority 2004, published 2007).
Where a name gives a salt, the structure may show the parent alone.

Experiments:
[1] = tested on: patient diagnosed as chronic sinusitis; experiment: Test Example 1: effect of olopatadine hydrochloride on chronic sinusitis, one patient, CT and subjective symptoms; format: in vivo, human; conditions: for improvement of symptoms (polyp, headache, right nasal obstruction, purulent nasal discharge, closure of right olfactory cleft): administration of Klaricid and Neuzym for 2 months or more, same patient, before olopatadine hydrochloride
Description: A patient diagnosed as chronic sinusitis was orally daily administered with olopatadine hydrochloride (Allelock™ 5 mg tablet; Kyowa Hakko Kogyo Co., Ltd.) alone in a dose of one tablet two times (after breakfast and before bedtime) a day (10 mg/day) everyday. Before the administration of olopatadine hydrochloride and 2 months after the administration, computed tomography (CT) was performed to observe changes in symptoms. […] In administration of Klaricid™ (general name: clarithromycin) and Neuzym™ (general name: lysozyme chloride) for 2 months or more, improvement of these symptoms were not observed.

[2] = tested on: experimental allergic rhinitis model; conditions: guinea pigs; cited from earlier work
[3] = tested on: allergic rhinitis; conditions: Phase III test; cited from earlier work
[4] = tested on: patient with chronic sinusitis complicated with allergic rhinitis; experiment: Test Example 5: transitions of symptoms, CT and plain radiography, one patient; format: in vivo, human; parameters: key to Color of inferior turbinate mucosa (objective symptom grade): +++: (Pale); ++: (Red); +: (Light red); −: (Normal); key to Postnasal drip (subjective symptom grade): +++: Always; ++: Frequently; +: Sometimes; −: No
Description: A patient with chronic sinusitis complicated with allergic rhinitis was orally administered with olopatadine hydrochloride (Allelock™ 5 mg tablet; Kyowa Hakko Kogyo Co., Ltd.) alone in a dose of one tablet two times a day for 2 months (10 mg/day). The patient had developed serious sneezing, nasal obstruction, and postnasal drip about 5 and half years ago. The patient discontinued treatment when the subjective symptoms were relieved by intermittent medication. However, improvements in the symptoms were not observed before the start of treatment by administration of the above olopatadine hydrochloride. In addition, in a nasal discharge eosinophil test (an intermediate state between clusters of eosinophils and observable weak dispersion of eosinophils in nasal discharge) and a scratch test (house dust, candida, cedar, and orchard grass), the patient was positive before the start of administration, and the chronic sinusitis of the patient was recognized to be complicated with allergic rhinitis. […] The degree of each symptom was decided on the basis of Tables 3 and 4 in reference to “Nasal Allergy Diagnosis Guideline for 2002 (Revised Fourth Edition)”. In addition, computed tomography (CT) was conducted before the administration of olopatadine hydrochloride and 1 month after and 2 months after the administration, and plain radiography (Waters method) was conducted before the administration of olopatadine hydrochloride and 2 months after the administration to observe changes in the symptoms.

[5] = tested on: patient diagnosed as chronic sinusitis; experiment: Test Example 4: effect 3 on chronic sinusitis, one patient, 35-day schedule, plain radiography; format: in vivo, human
Description: (§1) A patient diagnosed as chronic sinusitis was administered with olopatadine hydrochloride (Allelock™ 5 mg tablet; Kyowa Hakko Kogyo Co., Ltd.) according to the prescription schedule below (35 days in total). 1. First 7 Days (Co-Administration) Three medicines were dosed together according to the following prescription. Olopatadine hydrochloride 5 mg tablet: oral dose of one tablet two times a day for 7 days (10 mg/day) Gatiflo™ (general name: gatifloxacin) 200 mg tablet: oral dose of one tablet two times a day for 4 days (400 mg/day) Mucodyne™ (general name: carbocysteine) 500 mg tablet: oral dose of one tablet three times a day for 7 days (1500 mg/day) 2. Next 14 Days (Co-Administration) Two medicines were further dosed together according to the following prescription. Olopatadine hydrochloride 5 mg tablet: oral dose of one tablet two times a day for 14 days (10 mg/day) Mucodyne™ 500 mg table: oral dose of one tablet three times a day for 14 days (1500 mg/day) 3. Next 14 Days (Single Administration) Furthermore, olopatadine hydrochloride was given according to the following prescription: Olopatadine hydrochloride 5 mg table: oral dose of one tablet two times a day for 14 days (10 mg/day) Plain radiography was conducted before the administration of the above medicines and 35 days after the administration to observe changes in the symptoms.

[6] = tested on: patients with chronic sinusitis complicated with perennial allergic rhinitis; experiment: Test Example 2: degree of improvement in symptoms, 24 patients, eighth week; format: in vivo, human; conditions: oral 10 mg/day, other medicines may be combined
Description: Patients (24 patients, average age 33.8 years old, duration 61.5±59.7 days) with chronic sinusitis complicated with perennial allergic rhinitis were orally administered with olopatadine hydrochloride (Allelock™ 5 mg tablet; Kyowa Hakko Kogyo Co., Ltd.) in a dose of one tablet two times-(after breakfast and before bedtime) a day (10 mg/day) everyday. In this case, Mucodyne™ (general name: carbocysteine), Dasen™ (general name: serrapeptase), Polaramine™ (general name: d-chlorpheniramine maleate), Klaricid™ (general name: clarithromycin) or the like may be combined. The combined use with such a medicine was filled in a survey sheet. Such a medicine had been given for treatment before this test. At the eighth week of the administration, degrees of improvement in 1) sneezing, 2) nasal drip, 3) nasal obstruction, 4) interference with daily life, 5) mucosal swelling, 6) headache and head heaviness, and 7) postnasal drip were examined for each patient. The degree of each symptom determined with reference according to “Nasal Allergy Diagnosis Guideline for 2002 (Revised Fourth Edition)”, and the degree of improvement in each symptom was evaluated for each patient having a corresponding symptom before the administration on the basis of the four stages, i.e., disappearance, significant improvement, improvement, and no change. In the case of more than improvement (disappearance, significant improvement, or improvement), the rate of improvement was evaluated as “effective” and calculated as a rate (%) of an effective number of patients relative to the number of patients (number of cases) having a corresponding symptom before administration.

[7] = tested on: patient diagnosed as chronic sinusitis; experiment: Test Example 3: effect 2 on chronic sinusitis, one patient, 21-day schedule, plain radiography; format: in vivo, human
Description: as §1, with “(21” for “(35”, “prescription. Also, frequently used SG granules were also prescribed.” for “prescription.”, “(Single Administration of” for “(Co-Administration) Two medicines were further dosed together according to the following prescription.”, “Hydrochloride)” for “hydrochloride 5 mg tablet: oral dose of one tablet two times a day for 14 days (10 mg/day) Mucodyne™ 500 mg table: oral dose of one tablet three times a day for 14 days (1500 mg/day) 3. Next 14 Days (Single Administration)”, “tablet:” for “table:”, “21” for “35”

[8] = Two weeks after administration, oral 10 mg/day alone, before administration ++
[9] = single administration for 2 months, oral 10 mg/day
[10] = first 7 days, co-administration with Gatiflo (gatifloxacin) and Mucodyne (carbocysteine), oral 10 mg/day
[11] = next 14 days, co-administration with Mucodyne (carbocysteine), oral 10 mg/day
[12] = next 14 days, single administration, oral 10 mg/day
[13] = oral 10 mg/day alone for 2 months, one patient

## CC[C@H]1OC(=O)[C@H](C)[C@@H](O[C@H]2C[C@@](C)(OC)[C@@H](O)[C@H](C)O2)[C@H](C)[C@@H](O[C@@H]2O[C@H](C)C[C@H](N(C)C)[C@H]2O)[C@](C)(OC)C[C@@H](C)C(=O)[C@H](C)[C@@H](O)[C@]1(C)O [Klaricid, clarithromycin]
[1]
  improvement of symptoms (polyp, headache, right nasal obstruction, purulent nasal discharge, closure of right olfactory cleft): not observed

## CN(C)CC/C=C1/c2ccccc2COc2ccc(CC(=O)O)cc21 [compound 1, (Z)-11-(3-dimethylaminopropylidene)-6,11-dihydrodibenzo[b,e]oxepine-2-acetic acid]
[2]
  nasal congestion reaction: inhibitory action
[3]
  nasal congestion of allergic rhinitis: highly improve

## CN(C)CC/C=C1/c2ccccc2COc2ccc(CC(=O)O)cc21 [olopatadine hydrochloride]
[4]; One month after administration, oral 10 mg/day alone, before administration ++
  Color of inferior turbinate mucosa (objective symptom grade): −
[4]; [8]
  Color of inferior turbinate mucosa (objective symptom grade): −
  Postnasal drip (subjective symptom grade): +
[4]; single administration for 1 month, oral 10 mg/day
  mucosal swelling in the ethmoidal sinus and the maxillary sinus (CT image): significantly relieved
[4]; [9]
  mucosal swelling in the ethmoidal sinus and the maxillary sinus (CT image): substantially disappeared
  shadows observed in the maxillary sinus indicating inflammation of chronic sinusitis (plain radiograph): disappeared
[5]; after a total of 35 days
  shadows in the plain radiograph indicating sinusitis inflammation in the ethmoidal sinus and right and left maxillary sinuses: completely disappeared
[5]; [10]
  left cheek pain (facial pain) and malaise: disappeared
  postnasal drip: not improved
  purulent nasal discharge: decreased and substantially disappeared
[5]; last 14 days, single administration, oral 10 mg/day
  all subjective symptoms: disappeared
[5]; [11]
  nasal mucosal swelling and the like: disappeared
  nasal symptoms such as purulent nasal discharge and postnasal drip: disappeared
[6]; 3 cases
  Postnasal drip: Rate of improvement: 100%
  Postnasal drip: patients with Disappearance: 3
  Postnasal drip: patients with Improvement: 0
  Postnasal drip: patients with No change: 0
  Postnasal drip: patients with Significant improvement: 0
[6]; 5 cases
  Headache, head heaviness: Rate of improvement: 100%
  Headache, head heaviness: patients with Disappearance: 5
  Headache, head heaviness: patients with Improvement: 0
  Headache, head heaviness: patients with No change: 0
  Headache, head heaviness: patients with Significant improvement: 0
[6]; 12 cases
  Sneezing: Rate of improvement: 91.7%
  Sneezing: patients with Disappearance: 8
  Sneezing: patients with Improvement: 3
  Sneezing: patients with No change: 1
  Sneezing: patients with Significant improvement: 0
[6]; 15 cases
  Nasal drip: Rate of improvement: 73.3%
  Nasal drip: patients with Disappearance: 4
  Nasal drip: patients with Improvement: 5
  Nasal drip: patients with No change: 4
  Nasal drip: patients with Significant improvement: 2
[6]; 16 cases
  Interference with daily life: Rate of improvement: 87.5%
  Interference with daily life: patients with Disappearance: 3
  Interference with daily life: patients with Improvement: 8
  Interference with daily life: patients with No change: 2
  Interference with daily life: patients with Significant improvement: 3
  Mucosal Swelling: Rate of improvement: 87.5%
  Mucosal Swelling: patients with Disappearance: 0
  Mucosal Swelling: patients with Improvement: 13
  Mucosal Swelling: patients with No change: 2
  Mucosal Swelling: patients with Significant improvement: 1
  Nasal obstruction: Rate of improvement: 87.5%
  Nasal obstruction: patients with Disappearance: 4
  Nasal obstruction: patients with Improvement: 7
  Nasal obstruction: patients with No change: 2
  Nasal obstruction: patients with Significant improvement: 3
[7]; after a total of 21 days (7 days co-administration, 14 days single)
  shadows in the plain radiograph indicating sinusitis inflammation in the ethmoidal sinus and right and left maxillary sinuses: completely disappeared
[7]; [10]
  cheek pains (facial pain) and headache: disappeared
  nasal symptoms such as purulent nasal discharge and nasal obstruction: improved
[7]; [12]
  nasal mucosal swelling and the like: unobserved
  nasal symptoms such as purulent nasal discharge and nasal obstruction: disappeared
[1]; [13]
  polyp and soft-tissue density mass which filled the right nasal cavity (CT image): substantially disappeared
  soft-tissue density area which filled the right ethmoidal, right sphenoidal and right frontal sinus (CT image): substantially disappeared
  subjective symptoms such as nasal drip and headache: disappeared
  swelling of the inside wall toward the nasal cavity side, closure of the right olfactory cleft due to mucosal thickening (CT image): relieved

## lysozyme chloride [Neuzym]
[1]
  improvement of symptoms (polyp, headache, right nasal obstruction, purulent nasal discharge, closure of right olfactory cleft): not observed
